Measured values published in patent US20210246115A1 (Bioimics AB, priority 2017, published 2021).
Where a name gives a salt, the structure may show the parent alone. Read-outs that look alike come from different tables or passages of the source.

Legend:
[1] = system: Enterococcus faecalis (ATCC29212); assay: MIC, broth microdilution (CLSI), Enterococcus faecalis; assay type: cell-based
[2] = system: Pseudomonas aeruginosa (ATCC27853); assay: MIC, broth microdilution (CLSI), Pseudomonas aeruginosa; assay type: cell-based
[3] = system: Staphylococcus aureus subsp. aureus (ATCC29213); assay: MIC, broth microdilution (CLSI), Staphylococcus aureus ATCC29213; assay type: cell-based; conditions: Staphylococcus aureus
[4] = system: E. coli RNase P RNA, M1 RNA; assay: Inhibition of bacterial RNase P activity, IC50 determination (cleavage of pATSerUG by M1 RNA); assay type: biochemical; conditions: NI: No inhibition
[5] = system: S. aureus MRSA ATCC 33591; assay: MIC, S. aureus MRSA ATCC 33591; assay type: cell-based; conditions: Staphylococcus aureus, read-out: S. aureus MRSA ATCC 33591 MIC
[6] = system: S. aureus USA300 MRSA BAA-1717; assay: MIC, S. aureus USA300 MRSA BAA-1717; assay type: cell-based; conditions: Staphylococcus aureus, read-out: S. aureus USA300 MRSA BAA-1717 MIC
E. faecium ATCC 700221 = assay: MIC, E. faecium ATCC 700221; assay type: cell-based; conditions: Enterococcus faecium
S. pneumoniae ATCC 49619 = assay: MIC, S. pneumoniae ATCC 49619; assay type: cell-based; conditions: Streptococcus pneumoniae, ATCC49619; Table XIV A. Gram-positive bacteria
M. phlei ATCC 11758 = assay: MIC, M. phlei ATCC 11758; assay type: cell-based; conditions: Mycolicibacterium phlei, ATCC11758; Table XIV A. Gram-positive bacteria
M. fortuitum ATCC 110 = assay: MIC, M. fortuitum ATCC 110; assay type: cell-based; conditions: Mycolicibacterium fortuitum, ATCC110; Table XIV A. Gram-positive bacteria
[7] = system: E. coli JW5503 (efflux defective); assay: MIC, E. coli JW5503 (efflux defective); assay type: cell-based; conditions: Escherichia coli, read-out: E. coli JW5503 (efflux defective) MIC
K. pneumoniae ATCC 43816 = assay: MIC, K. pneumoniae ATCC 43816; assay type: cell-based; conditions: Klebsiella pneumoniae, ATCC43816; Table XIV B. Gram-negative bacteria
H. influenzae ATCC 49247 = assay: MIC, H. influenzae ATCC 49247; assay type: cell-based; conditions: Haemophilus influenzae, ATCC49247; Table XIV B. Gram-negative bacteria
A. baumannii ATCC 17978 = assay: MIC, A. baumannii ATCC 17978; assay type: cell-based; conditions: Acinetobacter baumannii, ATCC17978; Table XIV B. Gram-negative bacteria
[8] = system: P. aeruginosa NTUH974 (MDR); assay: MIC, P. aeruginosa NTUH974 (MDR); assay type: cell-based; conditions: Pseudomonas aeruginosa, read-out: P. aeruginosa NTUH974 (MDR) MIC
[9] = system: N. gonorrhoeae ATCC 700825; assay: MIC, N. gonorrhoeae ATCC 700825; assay type: cell-based; conditions: Neisseria gonorrhoeae, ATCC700825; Table XIV B. Gram-negative bacteria
H. pylori ATCC 43504 = assay: MIC, H. pylori ATCC 43504; assay type: cell-based; conditions: Helicobacter pylori, ATCC43504; Table XIV B. Gram-negative bacteria
[10] = system: Escherichia coli (ATCC25922); assay: MIC, broth microdilution (CLSI), Escherichia coli; conditions: Escherichia coli
Method: Initial minimal inhibitory concentration (MIC) tests were made on two bacterial strains: • Escherichia coli (ATCC25922) • Staphylococcus aureus (ATCC25923).
MIC values were determined using the standard broth microdilution procedure based on the guidelines by the Clinical and Laboratory Standards Institute (CLSI). Briefly, the compounds were dissolved in DMSO to 10 mM. They were diluted in cation-adjusted Mueller-Hinton broth (CAMHB) to four times the highest concentration tested. A serial two-fold dilution in CAMHB was done in microdilution plates. The inoculum of bacterial strain to be tested was prepared by making a suspension of colonies from an 18 to 24 hours old plate in CAMHB. The inoculum was diluted so that, after inoculation, each well contained approximately 5×10^5 CFU/mL. To a volume of 50 μl compound in CA 3 an equal volume of inoculum was added. The tray was sealed in a plastic bag and incubated at 35° C. for 16 to 20 hours. To aid in the detection of growth the dye resazurin was added to a final concentration 0.001% and incubated at room temperature for 1 h. Reduction of resazurin, and therefore bacterial growth, was seen as a change from blue to pink.

[11] = Table XIV A. Gram-positive bacteria
[12] = ATCC25922, read-out: E. coli ATCC 25922 MIC, Table XIII
[13] = ATCC25922, read-out: E. coli ATCC 25922 MIC, Table XIV B. Gram-negative bacteria

SMILES	IC50 [4] [µM]	MIC (S. pneumoniae ATCC 49619) [µg/mL]	MIC (M. phlei ATCC 11758) [µg/mL]	MIC (M. fortuitum ATCC 110) [µg/mL]	MIC [7] [µg/mL]	MIC (K. pneumoniae ATCC 43816) [µg/mL]	MIC (H. influenzae ATCC 49247) [µg/mL]	MIC (A. baumannii ATCC 17978) [µg/mL]	MIC [9] [µg/mL]	MIC (H. pylori ATCC 43504) [µg/mL]	MIC [10, 12] [µg/mL]	MIC [10, 13] [µg/mL]	also measured
NCCCNCCC(c1cccc(OC(F)(F)F)c1)c1cn(C2CCCCC2)c2ccccc12 (stereo not shown) [Compound 348, N1-(3-(1-cyclohexyl-1H-indol-3-yl)-3-(3-(trifluoromethoxy)phenyl)propyl)propane-1,3-diaminesalt]	4.5	8	4	4	2	2	4	4	2	16	4	2	MIC ([1]; ATCC29212, Table XIV A. Gram-positive bacteria, read-out: E. faecalis ATCC 29212 MIC): 2 µg/mL; MIC ([2]; ATCC27853, Table XIV B. Gram-negative bacteria, read-out: P. aeruginosa ATCC 27853 MIC): 8 µg/mL; MIC ([3]; ATCC29213, Table XIII, read-out: S. aureus ATCC 29213 MIC): 4 µg/mL; MIC ([3]; ATCC29213, Table XIV A. Gram-positive bacteria, read-out: S. aureus ATCC 29213 MIC): 4 µg/mL; MIC [5, 11]: 4 µg/mL; MIC [6, 11]: 4 µg/mL; MIC (E. faecium ATCC 700221; ATCC700221, Table XIV A. Gram-positive bacteria, read-out: E. faecium ATCC 700221 MIC): 2 µg/mL; MIC ([8]; Table XIV B. Gram-negative bacteria): 8 µg/mL
N#Cc1ccc2c(c1)c(C(CCNCCCN)c1cccc(OC(F)(F)F)c1)cn2C1CCCCC1 (stereo not shown) [Compound 372, 3-(3-((3-aminopropyl)amino)-1-(3-(trifluoromethoxy)phenyl)propyl)-1-cyclohexyl-1H-indole-5-carbonitrile, dihydrochloride salt]	9.1	8	4	4	2	2	4	4	4	16	4	2	MIC ([1]; ATCC29212, read-out: E. faecalis ATCC 29212 MIC): 2 µg/mL; MIC ([2]; ATCC27853, read-out: P. aeruginosa ATCC 27853 MIC): 8 µg/mL; MIC ([3]; ATCC29213, read-out: S. aureus ATCC 29213 MIC, Table XIII): 4 µg/mL; MIC ([3]; ATCC29213, read-out: S. aureus ATCC 29213 MIC, Table XIV A. Gram-positive bacteria): 2 µg/mL; MIC [5]: 4 µg/mL; MIC [6]: 2 µg/mL; MIC (E. faecium ATCC 700221; ATCC700221, read-out: E. faecium ATCC 700221 MIC): 2 µg/mL; MIC [8]: 8 µg/mL
